# In patent US20230085307A1, “PYRIDAZINONE COMPOUND AND HERBICIDE” (NISSAN CHEMICAL CORPORATION, priority 2019, published 2023):
# What was measured:
# [1] = test system: Italian ryegrass; test: Test Example 4: herbicidal effect by soil treatment (Table 19, symbol K); type: in vivo, Italian ryegrass (Lolium multiflorum); conditions: amount of applied herbicide 320 g/ha
# Outline: (§1)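 Emulsion of test compound, water-diluted to predetermined amount, sprayed on soil after sowing (seed depth ~1.5 cm, sterilized diluvial soil). Greenhouse, 25–30° C. Effect graded at three weeks post-spray.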
# [2] = test system: Italian ryegrass; test: Test Example 5: herbicidal effect by foliage application, plastic box (Table 20, symbol K); type: in vivo, Italian ryegrass (Lolium multiflorum); conditions: foliage application, 320 g/ha, evaluated three weeks after application
# Outline: (§2)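 Post-emergence foliar test in sterilized diluvial soil. Compound applied as water-diluted emulsion at a predetermined rate to 14-day-old plants; evaluation at three weeks.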
# [3] = test system: green foxtail; test: Test Example 4: herbicidal effect by soil treatment (Table 19, symbol G); type: in vivo, green foxtail (Setaria viridis); conditions: amount of applied herbicide 320 g/ha
# Outline: as §1
# [4] = test system: redroot pigweed; test: Test Example 5: herbicidal effect by foliage application, plastic box (Table 20, symbol N); type: in vivo, redroot pigweed (Amaranthus retroflexus); conditions: foliage application, 320 g/ha, evaluated three weeks after application
# Outline: as §2
# [5] = test system: barnyard grass; test: Test Example 3: herbicidal effect by foliage application, Wagner pot (Table 18, symbol H); type: in vivo, barnyard grass (Echinochloa crus-galli); conditions: amount of applied herbicide 320 g/ha
# Outline: (§3)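 Plants were sown in alluvial soil held under 0.1–0.5 cm standing water and grown 14 days in a greenhouse at 25–30 °C. An emulsifiable formulation, water-diluted to the set dose, was then sprayed onto the foliage, and effects were scored three weeks later using previously defined criteria.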
# [6] = test system: rice flat sedge; test: Test Example 3: herbicidal effect by foliage application, Wagner pot (Table 18, symbol E); type: in vivo, rice flat sedge (Cyperus iria); conditions: amount of applied herbicide 320 g/ha
# Outline: as §3
# [7] = test system: barnyard grass; test: Test Example 4: herbicidal effect by soil treatment (Table 19, symbol H); type: in vivo, barnyard grass (Echinochloa crus-galli); conditions: amount of applied herbicide 320 g/ha
# Outline: as §1
# [8] = test system: redroot pigweed; test: Test Example 4: herbicidal effect by soil treatment (Table 19, symbol N); type: in vivo, redroot pigweed (Amaranthus retroflexus); conditions: amount of applied herbicide 320 g/ha
# Outline: as §1
# [9] = test system: windgrass; test: Test Example 5: herbicidal effect by foliage application, plastic box (Table 20, symbol L); type: in vivo, windgrass (Apera spica-venti); conditions: foliage application, 320 g/ha, evaluated three weeks after application
# Outline: as §2
# [10] = test system: southern crabgrass; test: Test Example 4: herbicidal effect by soil treatment (Table 19, symbol F); type: in vivo, southern crabgrass (Digitaria ciliaris); conditions: amount of applied herbicide 320 g/ha
# Outline: as §1
# [11] = test system: lambsquarters; test: Test Example 5: herbicidal effect by foliage application, plastic box (Table 20, symbol O); type: in vivo, lambsquarters (Chenopodium album); conditions: foliage application, 320 g/ha, evaluated three weeks after application
# Outline: as §2
# [12] = test system: wild oat; test: Test Example 4: herbicidal effect by soil treatment (Table 19, symbol I); type: in vivo, wild oat (Avena fatua); conditions: amount of applied herbicide 320 g/ha
# Outline: as §1
# [13] = test system: green foxtail; test: Test Example 5: herbicidal effect by foliage application, plastic box (Table 20, symbol G); type: in vivo, green foxtail (Setaria viridis); conditions: foliage application, 320 g/ha, evaluated three weeks after application
# Outline: as §2
# [14] = test system: late watergrass; test: Test Example 1: herbicidal activity, application before weed generation under submerged conditions (Table 16, symbol A); type: in vivo, late watergrass (Echinochloa oryzicola); conditions: 320 g/ha applied herbicide
# Outline: (§4)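 Submerged Wagner pots (alluvial soil, 4 cm water) sown with weed seeds and planted with 2.5-leaf rice seedlings; emulsifiable concentrate diluted in water applied to water surface on sowing day. Held in greenhouse at 25-30 °C; injury scored 0-5 by herbicidal rate after three weeks.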
# [15] = test system: Chinese sprangletop; test: Test Example 3: herbicidal effect by foliage application, Wagner pot (Table 18, symbol D); type: in vivo, chinese sprangletop (Leptochloa chinensis); conditions: amount of applied herbicide 320 g/ha
# Outline: as §3
# [16] = test system: velvetleaf; test: Test Example 4: herbicidal effect by soil treatment (Table 19, symbol M); type: in vivo, velvetleaf (Abutilon theophrasti); conditions: amount of applied herbicide 320 g/ha
# Outline: as §1
# [17] = test system: southern crabgrass; test: Test Example 5: herbicidal effect by foliage application, plastic box (Table 20, symbol F); type: in vivo, southern crabgrass (Digitaria ciliaris); conditions: foliage application, 320 g/ha, evaluated three weeks after application
# Outline: as §2
# [18] = test system: persian speedwell; test: Test Example 4: herbicidal effect by soil treatment (Table 19, symbol R); type: in vivo, Persian speedwell (Veronica persica); conditions: amount of applied herbicide 320 g/ha
# Outline: as §1
# [19] = test system: chickweed; test: Test Example 4: herbicidal effect by soil treatment (Table 19, symbol P); type: in vivo, common chickweed (Stellaria media); conditions: amount of applied herbicide 320 g/ha
# Outline: as §1
# [20] = test system: velvetleaf; test: Test Example 5: herbicidal effect by foliage application, plastic box (Table 20, symbol M); type: in vivo, velvetleaf (Abutilon theophrasti); conditions: foliage application, 320 g/ha, evaluated three weeks after application
# Outline: as §2
# [21] = test system: blackgrass; test: Test Example 5: herbicidal effect by foliage application, plastic box (Table 20, symbol J); type: in vivo, blackgrass (Alopecurus myosuroides); conditions: foliage application, 320 g/ha, evaluated three weeks after application
# Outline: as §2
# [22] = test system: chickweed; test: Test Example 5: herbicidal effect by foliage application, plastic box (Table 20, symbol P); type: in vivo, common chickweed (Stellaria media); conditions: foliage application, 320 g/ha, evaluated three weeks after application
# Outline: as §2
# [23] = test system: Japanese bulrush; test: Test Example 1: herbicidal activity, application before weed generation under submerged conditions (Table 16, symbol B); type: in vivo, Japanese bulrush (Schoenoplectus juncoides); conditions: 320 g/ha applied herbicide
# Outline: as §4
# [24] = test system: lambsquarters; test: Test Example 4: herbicidal effect by soil treatment (Table 19, symbol O); type: in vivo, lambsquarters (Chenopodium album); conditions: amount of applied herbicide 320 g/ha
# Outline: as §1
# [25] = test system: wild oat; test: Test Example 5: herbicidal effect by foliage application, plastic box (Table 20, symbol I); type: in vivo, wild oat (Avena fatua); conditions: foliage application, 320 g/ha, evaluated three weeks after application
# Outline: as §2
# [26] = test system: oval-leafed pondweed; test: Test Example 1: herbicidal activity, application before weed generation under submerged conditions (Table 16, symbol C); type: in vivo, oval-leafed pondweed (Monochoria vaginalis); conditions: 320 g/ha applied herbicide
# Outline: as §4
# [27] = test system: blackgrass; test: Test Example 4: herbicidal effect by soil treatment (Table 19, symbol J); type: in vivo, blackgrass (Alopecurus myosuroides); conditions: amount of applied herbicide 320 g/ha
# Outline: as §1
# [28] = test system: persian speedwell; test: Test Example 5: herbicidal effect by foliage application, plastic box (Table 20, symbol R); type: in vivo, Persian speedwell (Veronica persica); conditions: foliage application, 320 g/ha, evaluated three weeks after application
# Outline: as §2
# [29] = test system: barnyard grass; test: Test Example 5: herbicidal effect by foliage application, plastic box (Table 20, symbol H); type: in vivo, barnyard grass (Echinochloa crus-galli); conditions: foliage application, 320 g/ha, evaluated three weeks after application
# Outline: as §2
# [30] = test system: windgrass; test: Test Example 4: herbicidal effect by soil treatment (Table 19, symbol L); type: in vivo, windgrass (Apera spica-venti); conditions: amount of applied herbicide 320 g/ha
# Outline: as §1
Compound,"K: Italian ryegrass, herbicidal effect rating [1]",herbicidal effect on K: Italian ryegrass (criteria 0-5) [2],"G: green foxtail, herbicidal effect rating [3]",herbicidal effect on N: redroot pigweed (criteria 0-5) [4],herbicidal effect on H: barnyard grass [5],herbicidal effect on E: rice flat sedge [6],"H: barnyard grass, herbicidal effect rating [7]","N: redroot pigweed, herbicidal effect rating [8]",herbicidal effect on L: windgrass (criteria 0-5) [9],"F: southern crabgrass, herbicidal effect rating [10]",herbicidal effect on O: lambsquarters (criteria 0-5) [11],"I: wild oat, herbicidal effect rating [12]",herbicidal effect on G: green foxtail (criteria 0-5) [13],Herbicidal effect on A: late watergrass (grade 0-5) [14],herbicidal effect on D: Chinese sprangletop [15],"M: velvetleaf, herbicidal effect rating [16]",herbicidal effect on F: southern crabgrass (criteria 0-5) [17],"R: persian speedwell, herbicidal effect rating [18]","P: chickweed, herbicidal effect rating [19]",herbicidal effect on M: velvetleaf (criteria 0-5) [20],also measured
Cc1nn(C)c(=O)c(-c2c(-c3cccc(F)c3)sc3ccc(F)cc23)c1O [2-201],2 (Herbicidal rate of 20% or more and less than 40%),4 (Herbicidal rate of 70% or more and less than 90%),3 (Herbicidal rate of 40% or more and less than 70%),5 (Herbicidal rate of 90% or more (almost completely withered)),5 (Herbicidal rate of 90% or more (almost completely withered)),5 (Herbicidal rate of 90% or more (almost completely withered)),4 (Herbicidal rate of 70% or more and less than 90%),5 (Herbicidal rate of 90% or more (almost completely withered)),4 (Herbicidal rate of 70% or more and less than 90%),3 (Herbicidal rate of 40% or more and less than 70%),5 (Herbicidal rate of 90% or more (almost completely withered)),0 (Herbicidal rate of 5% or less (almost no effect)),4 (Herbicidal rate of 70% or more and less than 90%),2 (Herbicidal rate of 20% or more and less than 40%),4 (Herbicidal rate of 70% or more and less than 90%),4 (Herbicidal rate of 70% or more and less than 90%),4 (Herbicidal rate of 70% or more and less than 90%),0 (Herbicidal rate of 5% or less (almost no effect)),3 (Herbicidal rate of 40% or more and less than 70%),5 (Herbicidal rate of 90% or more (almost completely withered)),"herbicidal effect on J: blackgrass (criteria 0-5) [21]: 0 (Herbicidal rate of 5% or less (almost no effect)); herbicidal effect on P: chickweed (criteria 0-5) [22]: 5 (Herbicidal rate of 90% or more (almost completely withered)); Herbicidal effect on B: Japanese bulrush (grade 0-5) [23]: 2 (Herbicidal rate of 20% or more and less than 40%); O: lambsquarters, herbicidal effect rating [24]: 4 (Herbicidal rate of 70% or more and less than 90%); herbicidal effect on I: wild oat (criteria 0-5) [25]: 0 (Herbicidal rate of 5% or less (almost no effect)); Herbicidal effect on C: oval-leafed pondweed (grade 0-5) [26]: 0 (Herbicidal rate of 5% or less (almost no effect)); J: blackgrass, herbicidal effect rating [27]: 0 (Herbicidal rate of 5% or less (almost no effect)); herbicidal effect on R: persian speedwell (criteria 0-5) [28]: 5 (Herbicidal rate of 90% or more (almost completely withered)); herbicidal effect on H: barnyard grass (criteria 0-5) [29]: 5 (Herbicidal rate of 90% or more (almost completely withered)); L: windgrass, herbicidal effect rating [30]: 0 (Herbicidal rate of 5% or less (almost no effect))"
Cc1nn(C)c(=O)c(-c2c(-c3ccccc3Cl)sc3ccc(F)cc23)c1O [2-203],0 (Herbicidal rate of 5% or less (almost no effect)),2 (Herbicidal rate of 20% or more and less than 40%),0 (Herbicidal rate of 5% or less (almost no effect)),3 (Herbicidal rate of 40% or more and less than 70%),4 (Herbicidal rate of 70% or more and less than 90%),5 (Herbicidal rate of 90% or more (almost completely withered)),0 (Herbicidal rate of 5% or less (almost no effect)),2 (Herbicidal rate of 20% or more and less than 40%),4 (Herbicidal rate of 70% or more and less than 90%),0 (Herbicidal rate of 5% or less (almost no effect)),3 (Herbicidal rate of 40% or more and less than 70%),0 (Herbicidal rate of 5% or less (almost no effect)),4 (Herbicidal rate of 70% or more and less than 90%),2 (Herbicidal rate of 20% or more and less than 40%),4 (Herbicidal rate of 70% or more and less than 90%),1 (Herbicidal rate of 5% or more and less than 20%),0 (Herbicidal rate of 5% or less (almost no effect)),0 (Herbicidal rate of 5% or less (almost no effect)),3 (Herbicidal rate of 40% or more and less than 70%),4 (Herbicidal rate of 70% or more and less than 90%),"herbicidal effect on J: blackgrass (criteria 0-5) [21]: 0 (Herbicidal rate of 5% or less (almost no effect)); herbicidal effect on P: chickweed (criteria 0-5) [22]: 5 (Herbicidal rate of 90% or more (almost completely withered)); Herbicidal effect on B: Japanese bulrush (grade 0-5) [23]: 0 (Herbicidal rate of 5% or less (almost no effect)); O: lambsquarters, herbicidal effect rating [24]: 3 (Herbicidal rate of 40% or more and less than 70%); herbicidal effect on I: wild oat (criteria 0-5) [25]: 0 (Herbicidal rate of 5% or less (almost no effect)); Herbicidal effect on C: oval-leafed pondweed (grade 0-5) [26]: 0 (Herbicidal rate of 5% or less (almost no effect)); J: blackgrass, herbicidal effect rating [27]: 0 (Herbicidal rate of 5% or less (almost no effect)); herbicidal effect on R: persian speedwell (criteria 0-5) [28]: 4 (Herbicidal rate of 70% or more and less than 90%); herbicidal effect on H: barnyard grass (criteria 0-5) [29]: 2 (Herbicidal rate of 20% or more and less than 40%); L: windgrass, herbicidal effect rating [30]: 0 (Herbicidal rate of 5% or less (almost no effect))"
